# Data published in US20250270202A1, “SUBSTITUTED 4-AMINOISOINDOLINE COMPOUND, PREPARATION METHOD THEREFOR, PHARMACEUTICAL COMPOSITION THEREOF, AND USE THEREOF” (SHANGHAI INSTITUTE OF MATERIA MEDICA, CHINESE ACADEMY OF …, priority 2022, published 2025).
# pIC50: −log10 of the molar value. Like-named read-outs stand apart in the source and are kept apart here.
# Key:
# Type in all cases: cell-based
# [1] = system: Mino cells; assay: Inhibition of cell proliferation of Mino cells (MTS, 3 days)
# Procedure: Mino cells were cultured with RPMI-1640 medium supplemented with 15% fetal bovine serum, and collected. The cell concentration was diluted according to a 3-day treatment period, and 90 μL of the cell suspension was added to each well of a 96-well plate, resulting in 8000 cells per well. For control wells, 10 μL of DMSO at a final concentration of 0.2% was added. The compounds were diluted in a 5-fold gradient from a 10 mM stock solution, and 10 μL of each compound solution was added to the experimental wells (with a final DMSO concentration of 0.2%). The cells were incubated in a 37° C., 5% CO2 incubator for 3 days. After preparing the reaction mixture using the MTS reagent kit (Promega, G5430), 20 μL was added to each well, and the cells were incubated for 3-4 hours at 37° C., 5% CO2.
# The absorbance at 490 nm was read using a microplate reader, with the absorbance at 690 nm used as the background. The final raw data was calculated as OD490-OD690. The inhibition rate of the compounds was calculated using the formula: Inhibition rate=(OD DMSO−OD compound)/(OD DMSO−OD blank)×100%. The IC50 values for cell proliferation inhibition of the compounds were fitted using GraphPad Prism 5.0. The experiment was repeated three times, with the average and standard deviation calculated from three parallel experiments each time.
# [2] = system: MV-4-11 cells; assay: Inhibition of MV-4-11 cell proliferation (MTS, 7 days)
# Procedure: MV-4-11 cells were cultured in IMDM with 10% fetal bovine serum, collected, and diluted to the appropriate cell concentration for a 7-day treatment period. A 96-well plate was used, and 180 μL of cell suspension was added to each well, resulting in a cell count of 2,000 per well. For the control wells, 20 μL of DMSO at a final concentration of 0.2% was added. The compounds were diluted from a 10 mM stock solution in a five-fold gradient, and 20 μL was added to the compound wells (with a final DMSO concentration of 0.2%). The cells were incubated in a 37° C., 5% CO2 incubator for 7 days. After preparing the reaction solution using the MTS reagent kit (Promega, G5430), 20 μL was added to each well, and the cells were incubated in the incubator for 3-4 hours. The absorbance at 490 nm was measured using a microplate reader, with the absorbance at 690 nm as the background value. The final data was calculated as OD490-OD690. The inhibition rate of the compounds was calculated using the formula: […]
# The IC50 values for proliferation inhibition were calculated using GraphPad Prism 5.0. The experiments were repeated three times, with three parallel experiments for each, and the mean and standard deviation were calculated.
# The cell activity test results are shown in Table 3: A indicates IC50<1 μM, B indicates 1 µM≤IC50≤20 μM, and C indicates IC50>20 μM.
# [3] = system: MM.1S cells; assay: Effect of the compound on MM.1S cell proliferation (MTS, 7 days)
# Procedure: MM.1S cells were cultured in 1640 medium supplemented with 10% fetal bovine serum, then collected and diluted to the desired cell concentration after 7 days of treatment. A total of 180 μL of cell suspension was added to each well in a 96-well cell plate, ensuring 20,000 cells per well. For the control group, 20 μL of 0.2% DMSO was added to each well. Compounds were diluted in a 5-step gradient from a 10 mM stock solution, and 20 μL of each dilution was added to the compound-containing wells (with a final DMSO concentration of 0.2%). The cells were incubated in a 37° C., 5% CO2 incubator for 7 days. Afterward, 20 μL of the MTS reagent (Promega, G5430) was added to each well, followed by incubation for 3-4 hours in a 37° C., 5% CO2 incubator. Absorbance at 490 nm was measured using a microplate reader, with 690 nm absorbance as the background. The final raw data was calculated as OD490-OD690. The compound inhibition rate was calculated using the formula: […]
# The IC50 for the compound's proliferative inhibition was fitted using GraphPad Prism 5.0. The experiment was repeated three times, and the average and standard deviation were calculated using three parallel experiments per trial.
# [4] = Homo sapiens, MINO, 72 h, 3 days, MTS, Table 2, read-out: Mino Cells Inhibition Activity IC50
# [5] = Homo sapiens, MV4-11, 168 h, 7 days, MTS, Table 3, read-out: MV-4-11 Cells Inhibition Activity IC50
# [6] = Homo sapiens, MM1.S, 168 h, 7 days, MTS, Table 1, read-out: MM.1S Cells Inhibition Activity IC50
# [7] = Homo sapiens, MV4-11, positive compounds, read-out: IC50 in MV-4-11 acute leukemia cells
Compound,"pIC50 [1, 4]","pIC50 [2, 5]","pIC50 [3, 6]",further results
COc1cccc(-c2ncc(CNc3cccc4c3C(=O)N(C3CCC(=O)NC3=O)C4=O)o2)c1 (stereo not drawn) [Example 17],6.92 to 7.22,4.70 to 6.00,> 7.82,
"O=C1CCC(N2Cc3c(NCc4cn(-c5ccc(Cl)cc5)nn4)cccc3C2=O)C(=O)N1 (stereo not drawn) [Example Ctrl-4, reference compound]",,,,"pIC50 ([1]; Homo sapiens, MINO, Table 4, read-out: Inhibitory Activity of Compounds on Cell Proliferation Mino IC50): < 5.30; IC50 ([2]; Homo sapiens, MV4-11, Table 4, values in nM, read-out: Inhibitory Activity of Compounds on Cell Proliferation MV-4-11 IC50): > 20000 nM; pIC50 ([3]; Homo sapiens, MM1.S, Table 4, read-out: Inhibitory Activity of Compounds on Cell Proliferation MM.1S IC50): < 7.82"
CN1CCN(Cc2ncc(CNc3cccc4c3C(=O)N(C3CCC(=O)NC3=O)C4=O)o2)CC1 (stereo not drawn) [Example 91],< 6.92,4.70 to 6.00,< 6.82,
"O=C1CCC(N2Cc3c(OCc4ccc(CN5CCOCC5)cc4)cccc3C2=O)C(=O)N1 (stereo not drawn) [CC-220, reference compound]",6.92 to 7.22,< 4.70,> 7.82,"pIC50 [2, 7]: < 4.70"
"N#Cc1ccc(C(=O)N2CCC(c3ncc(CNc4cccc5c4C(=O)N(C4CCC(=O)NC4=O)C5=O)o3)CC2)c(F)c1 (stereo not drawn) [Example 6, 4-(4-(5-(((2-(2,6-dioxopiperidin-3-yl)-1,3-dioxoisindole-4-yl)amino)methyl)oxazol-2-yl)piperidine-1-carbonyl)-3-fluorobenzonitrile]",6.92 to 7.22,4.70 to 6.00,6.82 to 7.52,
O=C1CCC(N2C(=O)c3cccc(NCc4cnc(C5CCN(C(=O)C6(C(F)(F)F)CCC6)CC5)o4)c3C2=O)C(=O)N1 (stereo not drawn) [Example 4],> 7.22,> 6.00,> 7.82,
O=C1CCC(N2C(=O)c3cccc(NCc4ncc(-c5ccccc5C(F)(F)F)o4)c3C2=O)C(=O)N1 (stereo not drawn) [Example 62],< 6.92,4.70 to 6.00,< 6.82,
O=C1CCC(N2C(=O)c3cccc(NCc4cnc(C5CCN(C(=O)c6ccc(OC(F)(F)F)cc6)CC5)o4)c3C2=O)C(=O)N1 (stereo not drawn) [Example 7],< 6.92,4.70 to 6.00,7.52 to 7.82,
COc1ccc(-c2ncc(CNc3cccc4c3C(=O)N(C3CCC(=O)NC3=O)C4=O)o2)cc1 (stereo not drawn) [Example 16],> 7.22,> 6.00,> 7.82,
"O=C1CCC(N2C(=O)c3cccc(NCc4cnc(-c5ccc(F)cc5)o4)c3C2=O)C(=O)N1 (stereo not drawn) [Example 93, 2-(2,6-Dioxopiperidine-3-yl)-4-(((2-(4-Fluorophenyl)oxazol-5-yl)methyl)amino)isoindoline-1,3-dione]",,,,"pIC50 ([1]; 3 days, MTS, Table 2, read-out: Mino Cells Inhibition Activity IC50): > 7.22; pIC50 ([2]; 7 days, MTS, Table 3, read-out: MV-4-11 Cells Inhibition Activity IC50): > 6.00; pIC50 ([3]; 7 days, MTS, Table 1, read-out: MM.1S Cells Inhibition Activity IC50): > 7.82"
O=C1CCC(N2C(=O)c3cccc(NCc4cnc(C5CCN(Cc6ccc(OC(F)(F)F)cc6)CC5)o4)c3C2=O)C(=O)N1 (stereo not drawn) [Example 14],6.92 to 7.22,> 6.00,7.52 to 7.82,
"O=C1CCC(N2C(=O)c3cccc(NCc4cnc(-c5cccc(F)c5)o4)c3C2=O)C(=O)N1 (stereo not drawn) [Example 70, 2-(2,6-Dioxopiperidin-3-yl)-4-(((2-(3-Fluorophenyl)oxazol-5-yl)methyl)amino)isoindolin-1,3-dione]",,4.70 to 6.00,7.52 to 7.82,
"O=C1CCC(N2C(=O)c3cccc(NCc4cnc(-c5cccc(Cl)c5)s4)c3C2=O)C(=O)N1 (stereo not drawn) [Example 68, 4-(((2-(3-Chlorophenyl)thiazol-5-yl)methyl)amino)-2-(2,6-Dioxopiperidin-3-yl)isoindolin-1,3-dione]",< 6.92,> 6.00,,
O=C1CCC(N2C(=O)c3cccc(NCc4cnc(-c5ccc(OC6COC6)cc5)o4)c3C2=O)C(=O)N1 (stereo not drawn) [Example 49],> 7.22,> 6.00,7.52 to 7.82,
O=C1CCC(N2C(=O)c3cccc(NCc4cnc(-c5ccc(O[C@H]6CCOC6)cc5)o4)c3C2=O)C(=O)N1 (stereo partly drawn) [Example 48],> 7.22,> 6.00,> 7.82,
O=C1CCC(N2C(=O)c3cccc(NCc4cnc(-c5cccc(OC(F)(F)F)c5)o4)c3C2=O)C(=O)N1 (stereo not drawn) [Example 55],,> 6.00,7.52 to 7.82,
COCCOc1ccc(-c2ncc(CNc3cccc4c3C(=O)N(C3CCC(=O)NC3=O)C4=O)s2)cc1 (stereo not drawn) [Example 104],< 6.92,> 6.00,7.52 to 7.82,
O=C1CCC(N2C(=O)c3cccc(NCc4cnc(C5CCN(C(=O)C6(c7ccc(F)cc7)CCC6)CC5)o4)c3C2=O)C(=O)N1 (stereo not drawn) [Example 2],> 7.22,> 6.00,> 7.82,
O=C1CCC(N2C(=O)c3cccc(NCc4cnc(-c5ccc(Cl)nc5)o4)c3C2=O)C(=O)N1 (stereo not drawn) [Example 44],< 6.92,< 4.70,6.82 to 7.52,
"O=C1CCC(N2C(=O)c3cccc(NCc4nnc(-c5ccccc5)o4)c3C2=O)C(=O)N1 (stereo not drawn) [Example 98, 2-(2,6-Dioxopiperidine-3-yl)-4-(((5-Phenyl-1,3,4-oxadiazol-2-yl)methyl)amino)isoindoline-1,3-dione]",< 6.92,4.70 to 6.00,7.52 to 7.82,
"O=C1CCC(N2C(=O)c3cccc(NCc4nnc(-c5ccccc5)s4)c3C2=O)C(=O)N1 (stereo not drawn) [Example 99, 2-(2,6-Dioxopiperidine-3-yl)-4-(((5-Phenyl-1,3,4-thiadiazol-2-yl)methyl)amino)isoindoline-1,3-dione]",< 6.92,4.70 to 6.00,6.82 to 7.52,
"O=C1CCC(N2C(=O)c3cccc(NCc4cnc(-c5cc(Cl)cc(Cl)c5)o4)c3C2=O)C(=O)N1 (stereo not drawn) [Example 75, 4-(((2-(3,5-Dichlorophenyl)oxazol-5-yl)methyl)amino)-2-(2,6-Dioxopiperidin-3-yl)isoindolin-1,3-dione]",< 6.92,> 6.00,,
O=C1CCC(N2C(=O)c3cccc(NCc4cnc(-c5ccccc5OC(F)(F)F)o4)c3C2=O)C(=O)N1 (stereo not drawn) [Example 56],,4.70 to 6.00,6.82 to 7.52,
O=C1CCC(N2C(=O)c3cccc(NCc4cnc(-c5ccc(OC6COC6)cc5)s4)c3C2=O)C(=O)N1 (stereo not drawn) [Example 102],,4.70 to 6.00,6.82 to 7.52,
O=C1CCC(N2C(=O)c3cccc(NCc4cnc(-c5ccccc5OC5COC5)o4)c3C2=O)C(=O)N1 (stereo not drawn) [Example 101],,4.70 to 6.00,,
"Cc1nc2cccc(N)c2c(=O)n1C1CCC(=O)NC1=O (stereo not drawn) [CC-122, reference compound]",,,,"pIC50 [2, 7]: < 4.70"
